Laboratory results: patent publication US20240287138A1, “CYCLIC PEPTIDES FOR INHIBITING TNF RECEPTOR 1 ACTIVITY” (Merck Sharp & Dohme LLC, priority 2023, published 2024)
Where two headings read alike, the source gives them in different places. Numbered stars: 1 amine (or outer) side, 2 acyl side, 3 side chain; on linkers, the order of the positions; unused ones are H or OH. Bridge positions count the residues as written; N and C are the ends. Square brackets hold non-standard residues; d marks the D form. Peptide text beside a SMILES is read from it. * marks the point of attachment. Trp(βS-Me,7-OMe) = COc1cccc2c([C@H](C)[C@H](N)C(=O)O)c[nH]c12; Ala(1-bicyclo(1.1.1)pentyl) = N[C@@H](CC12CC(C1)C2)C(=O)O; Trp(7-Cl) = N[C@@H](Cc1c[nH]c2c(Cl)cccc12)C(=O)O; Phe(4-CONH2) = NC(=O)c1ccc(C[C@H](N)C(=O)O)cc1; Phe(4-COOH) = N[C@@H](Cc1ccc(C(=O)O)cc1)C(=O)O; Trp(7-aza) = N[C@@H](Cc1c[nH]c2ncccc12)C(=O)O; Pip(5R-OH) = O=C(O)[C@@H]1CC[C@@H](O)CN1; X1 = O=C([C@@H]1CC[C@H](N[*:1])C1)[*:2]; Pip(4-aza) = O=C(O)[C@@H]1CNCCN1; 4Pal = N[C@@H](Cc1ccncc1)C(=O)O; NMeE = CN[C@@H](CCC(=O)O)C(=O)O; dHyp = O=C(O)[C@H]1C[C@H](O)CN1; Lys(Me) = CNCCCC[C@H](N)C(=O)O; αMeS = C[C@](N)(CO)C(=O)O; Carboxymethyl = O=C(O)C*; Nle = CCCC[C@H](N)C(=O)O; Sar = CNCC(=O)O

Columns and labels:
[1] = target: T1, human TNFR2 ECD protein (Homo sapiens, UniProt P20333); assay: SPR off-target binding (selectivity) to human TNFR2 ECD
T1 construct: HRV 3C protease cleavage site (C); 6His (C, cleaved yes); made in house; host or cells: Sf21 insect cells (baculovirus), secreted
T1 sequence (P20333 23-257): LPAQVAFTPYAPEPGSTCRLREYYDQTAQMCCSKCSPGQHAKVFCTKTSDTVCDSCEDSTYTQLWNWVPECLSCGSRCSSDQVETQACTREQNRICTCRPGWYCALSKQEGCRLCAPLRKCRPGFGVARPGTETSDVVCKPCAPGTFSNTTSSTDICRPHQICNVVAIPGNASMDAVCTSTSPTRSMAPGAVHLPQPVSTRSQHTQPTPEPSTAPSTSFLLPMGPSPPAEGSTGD
Description: (§1) B. Procedure for Binding Affinity and Selectivity measured by SPR
(§2) Affinity and selectivity for hTNFR1 and TNFR2 was determined using SPR. Human TNFR1 or TNFR2 genes (extracellular domain only) were synthesized with a C-terminal Avi-tag, HRV 3C protease cleavage site followed by a 6His-tag for affinity purification. The final gene product was cloned into pBAC™-1 vector (Millipore Sigma) for expression testing in insect cells. Constructs were transfected into Sf21 cells for baculovirus generation followed by protein expression analysis in Sf21 and Tni cell lines. Large scale expression in Sf21 cells was performed using baculovirus infected insect cells (BIICs) infected at a MOI=2.0 grown for 72 h. Target proteins secreted into the media were harvested via centrifugation and concentrated using diafiltration. TNFR was purified by immobilized metal ion affinity chromatography (IMAC) using a Ni-Sepharose HisTrap™ column (Cytiva™). Isolated TNFR had His tag removed using HRV 3C protease followed by additional purification using Ni-NTA chromatography. Biotinylation was performed on Ni-NTA flow-through fractions concentrated to 45 μM and treated with BirA ligase (1:100, μg/μg ratio) in 50 mM Tris pH 7.5, 150 mM NaCl, 50 μM biotin, 10 mM magnesium acetate, 10 mM ATP at 4° C. for 20 h. Final purification of biotin-TNFR and buffer exchange into 20 mM HEPES pH 7.5, 150 mM NaCl was performed using a HiLoad® Superdex® 200 26/60 column (Cytiva™). Highly purified protein was aliquoted and stored at −80° C.
(§3) The SPR assay uses a Cytiva™ 8K or 8K+ biosensor instrument to measure the kinetics of peptide analytes binding to captured human TNFR1 extracellular domain (ECD) protein; peptide analytes are also evaluated for any off-target binding to human TNFR2 ECD protein in parallel. Recombinant human TNFR1 ECD and human TNFR2 ECD proteins, biotinylated via engineered C-terminal avi-tags, are immobilized to a regenerable streptavidin biosensor chip surface (Cytiva™ Biotin CAPture kit, Series S; cat. #28920234). Peptide analytes binding to immobilized human TNFR1 ECD protein and their subsequent dissociation are conducted in a buffer of 10 mM HEPES pH 7.4, 150 mM NaCl, 3 mM EDTA, 0.05% P20,2% DMSO under laminar flow conditions and measured in response units (RU), which are directly proportional to the accumulated mass on the surface of the biosensor chip; the biosensor chip surface is regenerated via Cytiva™ proprietary methods between the evaluation of each peptide analyte. […] The SPR assay determines the association and dissociation rate constants, kon and koff, for each peptide analyte and, from these values, calculates the binding affinity, […] reported in Table 2.

[2] = target: T2, TNFα-induced NF-κB signal transduction pathway (TNFR1 signaling) in THP-1 cells (Homo sapiens, UniProt P19438); assay: THP-1 Lucia NF-κB reporter cell assay, inhibition of TNFα-induced NF-κB signaling; assay type: cell-based; conditions: THP-1 NF-κB Lucia reporter cells, 10 ng/mL TNFα, 16-18 h, secreted luciferase; read-out: THP-1 IC50
T2 sequence (P19438 30-455): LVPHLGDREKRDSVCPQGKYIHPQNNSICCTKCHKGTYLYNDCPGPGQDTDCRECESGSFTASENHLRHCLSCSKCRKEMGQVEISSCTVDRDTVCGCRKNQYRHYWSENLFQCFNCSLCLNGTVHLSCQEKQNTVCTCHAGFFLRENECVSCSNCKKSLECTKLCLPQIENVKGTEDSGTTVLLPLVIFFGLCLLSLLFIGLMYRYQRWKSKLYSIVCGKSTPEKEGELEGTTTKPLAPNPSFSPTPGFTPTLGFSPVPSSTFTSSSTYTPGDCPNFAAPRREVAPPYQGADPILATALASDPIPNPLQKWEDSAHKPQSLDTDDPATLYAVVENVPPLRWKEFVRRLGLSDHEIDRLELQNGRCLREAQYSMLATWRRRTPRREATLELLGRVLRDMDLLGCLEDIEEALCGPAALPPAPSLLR
In short: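 Read-out: secreted Lucia luciferase luminescence (QUANTI-Luc) from supernatant after 16-18 h, 37 °C, 10 ng/mL rhTNFα. Peptide pretreatment 1 h at 37 °C; 20,000 cells/well, selection antibiotics omitted. IC50 via 4-parameter logistic model against min/max controls.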

[3] = target: T3, human TNFR1 extracellular domain (ECD) protein (Homo sapiens, UniProt P19438); assay: SPR binding affinity to captured human TNFR1 ECD
T3 construct: HRV 3C protease cleavage site (C); 6His (C, cleaved yes); made in house; host or cells: Sf21 insect cells (baculovirus), secreted
T3 sequence (P19438 30-211): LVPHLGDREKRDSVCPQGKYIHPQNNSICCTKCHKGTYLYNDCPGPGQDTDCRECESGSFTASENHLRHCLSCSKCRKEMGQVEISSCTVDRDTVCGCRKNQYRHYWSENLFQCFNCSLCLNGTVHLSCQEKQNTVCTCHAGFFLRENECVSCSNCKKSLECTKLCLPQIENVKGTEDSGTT
Description: as §1, §2, §3

| Structure (SMILES) | Kd ([1]; biotinylated human TNFR2 ECD on streptavidin chip, read-out: SPR hTNFR2 KD) [nM] | IC50 [2] [nM] | Kd ([3]; biotinylated human TNFR1 ECD on streptavidin chip, from kon and koff, read-out: SPR hTNFR1 KD) [nM] | Kd [1] [nM] | Kd [3] [nM] |
| --- | --- | --- | --- | --- | --- |
| CCCC[C@@H]1NC(=O)CSC[C@@H](C(N)=O)NC(=O)[C@H]([C@@H](C)c2c[nH]c3c(OC)cccc23)NC(=O)CN(C)C(=O)[C@H](Cc2ccc(O)cc2)NC(=O)[C@H](Cc2ccc(C(=O)O)cc2)NC(=O)[C@](C)(CO)NC(=O)[C@H](Cc2c[nH]c3c(Cl)cccc23)NC(=O)[C@H](Cc2ccncc2)NC(=O)[C@H](CC(N)=O)NC(=O)[C@H](CCC(=O)O)N(C)C(=O)[C@H](Cc2c[nH]c3ncccc23)NC(=O)[C@@H]2CNCCN2C(=O)[C@H](Cc2ccncc2)NC1=O [SEQ ID NO. 68] ({CH2CO}-[Nle][4Pal][Pip(4-aza)][Trp(7-aza)][NMeE]N[4Pal][Trp(7-Cl)][αMeS][Phe(4-COOH)]Y[Sar][Trp(βS-Me,7-OMe)]C-NH2; thioether N-14) | > 1000 | 3 | 0.55 | – | – |
| CCCC[C@@H]1NC(=O)[C@@H]2CC[C@@H](C2)NC(=O)[C@H]([C@@H](C)c2c[nH]c3c(OC)cccc23)NC(=O)CN(C)C(=O)[C@H](Cc2ccc(OCC(=O)O)cc2)NC(=O)[C@H](Cc2ccc(C(N)=O)cc2)NC(=O)[C@](C)(CO)NC(=O)[C@H](Cc2c[nH]c3c(Cl)cccc23)NC(=O)[C@H](Cc2ccc(OCC(=O)O)cc2)NC(=O)[C@H](CC(N)=O)NC(=O)[C@H]2C[C@H](O)CN2C(=O)[C@H](Cc2c[nH]c3ccccc23)NC(=O)[C@@H]2CC[C@@H](O)CN2C(=O)[C@H](Cc2ccncc2)NC1=O [SEQ ID NO. 3] (cyclo([4Pal][Pip(5R-OH)]W[dHyp]NY(Carboxymethyl)[Trp(7-Cl)][αMeS][Phe(4-CONH2)]Y(Carboxymethyl)[Sar][Trp(βS-Me,7-OMe)][X1][Nle])) | – | 0.5 | – | > 1000 | 0.04 |
| CCCC[C@@H]1NC(=O)CSC[C@@H](C(N)=O)NC(=O)[C@H]([C@@H](C)c2c[nH]c3c(OC)cccc23)NC(=O)CN(C)C(=O)[C@H](Cc2ccc(O)cc2)NC(=O)[C@H](Cc2ccc(C(=O)O)cc2)NC(=O)[C@](C)(CO)NC(=O)[C@H](Cc2c[nH]c3c(Cl)cccc23)NC(=O)[C@H](Cc2ccncc2)NC(=O)[C@H](CC(N)=O)NC(=O)[C@H](CCC(=O)O)N(C)C(=O)[C@H](Cc2c[nH]c3ncccc23)NC(=O)[C@@H]2CNCCN2C(=O)[C@H](CC23CC(C2)C3)NC1=O [SEQ ID NO. 33] ({CH2CO}-[Nle][Ala(1-bicyclo(1.1.1)pentyl)][Pip(4-aza)][Trp(7-aza)][NMeE]N[4Pal][Trp(7-Cl)][αMeS][Phe(4-COOH)]Y[Sar][Trp(βS-Me,7-OMe)]C-NH2; thioether N-14) | – | 6.8 | – | > 1000 | 0.3 |
| CNCCCC[C@@H]1NC(=O)[C@@H]2CC[C@@H](C2)NC(=O)[C@H]([C@@H](C)c2c[nH]c3c(OC)cccc23)NC(=O)CN(C)C(=O)[C@H](Cc2ccc(O)cc2)NC(=O)[C@H](Cc2ccc(C(N)=O)cc2)NC(=O)[C@](C)(CO)NC(=O)[C@H](Cc2c[nH]c3c(Cl)cccc23)NC(=O)[C@H](Cc2ccncc2)NC(=O)[C@H](CC(N)=O)NC(=O)[C@H](CCC(=O)O)N(C)C(=O)[C@H](Cc2c[nH]c3ccccc23)NC(=O)[C@@H]2CC[C@@H](O)CN2C(=O)[C@H](Cc2ccncc2)NC1=O [SEQ ID NO. 86] (cyclo([4Pal][Trp(7-Cl)][αMeS][Phe(4-CONH2)]Y[Sar][Trp(βS-Me,7-OMe)][X1][Lys(Me)][4Pal][Pip(5R-OH)]W[NMeE]N)) | – | 0.5 | – | > 1000 | 0.08 |
